Measured values taken from patent US5484780A, “Angiotensin II antagonists” (Eli Lilly and Company, priority 1994, dated 1996).
Values joined by “and” are separate entries in the source; they are usually repeats but may differ in a detail not shown here. Equal values may be shown once.

These compounds were tested against T1, angiotensin-induced vasoconstriction (rabbit aorta) (Oryctolagus cuniculus, UniProt P34976) (assay: Rabbit Aorta Test System: antagonism of angiotensin II contraction of aortic rings). Conditions: contraction to AII 10^-10 to 10^-7 M, 30 minutes incubation with compound; pA2 = -log KB.
T1 construct: The thoracic aortas were removed and cleaned of excess fat and connective tissue; from tissue; host or cells: thoracic aorta rings of New Zealand white rabbits (animals from Hazelton)
T1 sequence (P34976 1-359): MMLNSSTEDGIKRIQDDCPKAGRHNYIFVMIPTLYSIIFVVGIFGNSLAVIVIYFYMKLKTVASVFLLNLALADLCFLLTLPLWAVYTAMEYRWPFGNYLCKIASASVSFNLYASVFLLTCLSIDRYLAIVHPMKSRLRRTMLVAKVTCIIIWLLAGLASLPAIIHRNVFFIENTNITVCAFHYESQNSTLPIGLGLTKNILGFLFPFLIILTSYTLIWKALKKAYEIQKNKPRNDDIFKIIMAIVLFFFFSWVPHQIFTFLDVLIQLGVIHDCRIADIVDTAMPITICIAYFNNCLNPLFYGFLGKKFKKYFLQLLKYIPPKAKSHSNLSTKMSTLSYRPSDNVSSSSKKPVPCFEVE
Set-up: species or system New Zealand white rabbits
Experimental: As previously discussed, the compounds of Formula I are potent effective antagonists of angiotensin II. The ability of representative compounds of Formula I to block angiotensin II receptor binding was determined using the adrenal glomerulosa assay. The ability to antagonize angiotensin-induced vasoconstriction was evaluated in the rabbit aorta test system.
New Zealand white rabbits (Hazelton, 2-3 kg) were sacrificed by cervical dislocation. The thoracic aortas were removed and cleaned of excess fat and connective tissue. Rings of tissue (3 mm wide) were mounted in 10 ml tissue baths between 2 L-shaped stainless steel hooks. The lower hook was attached to a stationary rod. The upper hook was attached to a force displacement transducer (Grass model FT.03). The bath chambers were maintained at 37° C., aerated with 95% 02 /5% C02, and contained physiological solution of the following composition (mM): NaCl, 117; glucose, 5.6; NaH2 PO4, 1.0; MgS04, 0.7; KCl, 5.2; CaCl2, 1.8; NaHCO3, 26; and phentolamine HCl, 0.003.
Rings were equilibrated for 1 hour with 2 g of tension. During the equilibration period, the tissues were washed by overflow every 15 minutes. Rings were then exposed to 10^-8 M angiotensin II (AII) and were allowed to contract until a steady state was reached. Tissues were then washed every 15 minutes for 1 hour. This was repeated every hour until the AII response stabilized. A cumulative concentration response curve to AII (10^-10 to 10^-7 M) was then obtained. At the conclusion of the concentration response curve, tissues were washed every 2 minutes until baseline tension was reached, then every 15 minutes for 30 minutes. Compounds were added in a volume of 10 μl DMSO and allowed to incubate for 30 minutes before repeating the concentration response curve to AII. Contractions to AII were expressed as a percent of the maximum contraction obtained in the control curve (the first AII concentration response curve). EC50 's (concentration that contracted the tissues to 1/2 the control maximum) for each curve were calculated using a 4 parameter logistics model (NonLin, SAS Institute). Potency data for each compound tested are expressed as the pA2 (defined as-log KB, where KB =[molar concentration of antagonist]/[(EC50 AII with antagonist/EC50 AII without antagonist)-1]).

First: CCCCCC[C@H](C(=O)N1C[C@@H](Oc2ccc3ccc(C(=O)O)cc3c2)C[C@H]1C(=O)O)n1cnc(NC(=O)c2ccccc2S(=O)(=O)O)c1 [Example 63]
Second: CCCCCC[C@H](C(=O)N1C[C@@H](Oc2ccc3ccc(OC)cc3c2)C[C@H]1C(=O)O)n1cnc(NC(=O)c2ccccc2S(=O)(=O)O)c1 [Example 62]
The Kb of the first is 1.6-fold higher: 1.58 nM for the first, 1 nM for the second.

Compared with CCCCCC[C@H](C(=O)N1C[C@@H](Oc2ccc(-n3cncn3)cc2)C[C@H]1C(=O)O)n1cnc(NC(=O)c2ccccc2S(=O)(=O)O)c1 [Example 45], CCCCCCC(C(=O)N1C[C@@H](Oc2ccc(O)cc2)C[C@H]1C(=O)O)n1cnc(NC(=O)c2ccccc2S(=O)(=O)O)c1 (single isomer, unassigned) [Example 19] is 5-fold higher in Kb: 0.251 nM for the first, 1.26 nM for the second.

Compared with CCCCCC[C@H](C(=O)N1C[C@@H](Oc2ccc3oc(C)cc3c2)C[C@H]1C(=O)O)n1cnc(NC(=O)c2ccccc2S(=O)(=O)O)c1 [Example 69], CCCCCCC(C(=O)N1C[C@@H](Oc2ccc(OC)cc2)C[C@H]1C(=O)O)n1cnc(NC(=O)c2ccccc2S(=O)(=O)O)c1 (single isomer, unassigned) [Example 18] is 2.5-fold lower in Kb: 0.501 nM for the first, 0.2 nM for the second.

CCCCCC[C@H](C(=O)N1C[C@@H](Oc2ccc(CC)cc2)C[C@H]1C(=O)O)n1cnc(NC(=O)c2ccccc2S(=O)(=O)O)c1 [Example 23] and CCCCCC[C@H](C(=O)N1C[C@@H](Oc2ccc(CO)cc2)C[C@H]1C(=O)O)n1cnc(NC(=O)c2ccccc2S(=O)(=O)O)c1 [Example 35] are within 1.5-fold of each other in Kb: 1.58 nM for the first, 2 nM for the second.

Going from CCCCCC[C@H](C(=O)N1C[C@@H](Oc2ccc(OC(C)(C)C)cc2)C[C@H]1C(=O)O)n1cnc(NC(=O)c2ccccc2S(=O)(=O)O)c1 [Example 52] to CCCCCC[C@H](C(=O)N1C[C@@H](Oc2ccc(C(C)(C)C)cc2)C[C@H]1C(=O)O)n1cnc(NC(=O)c2ccccc2S(=O)(=O)O)c1 [Example 25], the Kb rises from 3.98 nM to 126 nM (32-fold).

First: CCCCCC[C@H](C(=O)N1C[C@@H](Oc2cccc3ccccc23)C[C@H]1C(=O)O)n1cnc(NC(=O)c2ccccc2S(=O)(=O)O)c1 [Example 64]
Second: CCCCCC[C@H](C(=O)N1C[C@@H](Oc2ccc(-c3ccccc3)cc2)C[C@H]1C(=O)O)n1cnc(NC(=O)c2ccccc2S(=O)(=O)O)c1 [Example 27]
The Kb of the first is 200-fold higher: 2000 nM for the first, 10 nM for the second.

Going from CCCCCC[C@H](C(=O)N1C[C@@H](Oc2ccc(CC(=O)N3CCC[C@H]3C(=O)O)cc2)C[C@H]1C(=O)O)n1cnc(NC(=O)c2ccccc2S(=O)(=O)O)c1 [Example 47] to CCCCCC[C@H](C(=O)N1C[C@@H](Oc2ccc(CCC(=O)O)cc2)C[C@H]1C(=O)O)n1cnc(NC(=O)c2ccccc2S(=O)(=O)O)c1 [Example 37], the Kb falls from 1 nM to 0.398 nM (2.5-fold).

First: CCCCCC[C@H](C(=O)N1C[C@@H](Oc2ccc(OC3CCCC3)cc2)C[C@H]1C(=O)O)n1cnc(NC(=O)c2ccccc2S(=O)(=O)O)c1 [Example 54]
Second: CCCCCC[C@H](C(=O)N1C[C@@H](Oc2ccc(OCC3CCCCC3)cc2)C[C@H]1C(=O)O)n1cnc(NC(=O)c2ccccc2S(=O)(=O)O)c1 [Example 56]
The Kb of the first is 13-fold lower: 2.51 nM for the first, 31.6 nM for the second.

Going from CCCCCC[C@H](C(=O)N1C[C@@H](Oc2ccc(C(=O)O)cc2)C[C@H]1C(=O)O)n1cnc(NC(=O)c2ccccc2-c2nn[nH]n2)c1 [Example 78] to CCCCCC[C@H](C(=O)N1C[C@@H](Oc2ccc(C(=O)O)cc2)C[C@H]1C(=O)O)n1cnc(NC(=O)c2ccccc2S(=O)(=O)O)c1 [Example 33], the Kb falls from 3.16 nM to 1 nM (3.2-fold).

First: CCCCCC[C@H](C(=O)N1C[C@@H](Oc2ccc(CCP(=O)(O)O)cc2)C[C@H]1C(=O)O)n1cnc(NC(=O)c2ccccc2S(=O)(=O)O)c1 [Example 42]
Second: CCCCCC[C@H](C(=O)N1C[C@@H](Oc2ccc(P(=O)(O)O)cc2)C[C@H]1C(=O)O)n1cnc(NC(=O)c2ccccc2S(=O)(=O)O)c1 [Example 44]
The Kb of the first is 4-fold lower: 1.26 nM for the first, 5.01 nM for the second.

Compared with CCCCCC[C@H](C(=O)N1C[C@@H](Oc2ccc(OP(=O)(O)O)cc2)C[C@H]1C(=O)O)n1cnc(NC(=O)c2ccccc2S(=O)(=O)O)c1 [Example 43], CCCCCC[C@H](C(=O)N1C[C@@H](Oc2ccc(OCC(=O)O)cc2)C[C@H]1C(=O)O)n1cnc(NC(=O)c2ccccc2S(=O)(=O)O)c1 [Example 57] is 2.5-fold lower in Kb: 0.794 nM for the first, 0.316 nM for the second.

Compared with CCCCCC[C@H](C(=O)N1C[C@@H](Oc2ccon2)C[C@H]1C(=O)O)n1cnc(NC(=O)c2ccccc2S(=O)(=O)O)c1 [Example 74], CCCCCC[C@H](C(=O)N1C[C@@H](Oc2cccnc2)C[C@H]1C(=O)O)n1cnc(NC(=O)c2ccccc2S(=O)(=O)O)c1 [Example 73] is 1.6-fold higher in Kb: 100 nM for the first, 158 nM for the second.

Compared with CCCCCC[C@H](C(=O)N1C[C@@H](Oc2ccc(-c3nc(C(=O)O)co3)cc2)C[C@H]1C(=O)O)n1cnc(NC(=O)c2ccccc2S(=O)(=O)O)c1 [Example 41], CCCCCC[C@H](C(=O)N1C[C@@H](Oc2ccc(C(C)C)cc2)C[C@H]1C(=O)O)n1cnc(NC(=O)c2ccccc2S(=O)(=O)O)c1 [Example 24] is 160-fold higher in Kb: 0.158 nM for the first, 25.1 nM for the second.

Compared with CCCCCC[C@H](C(=O)N1C[C@@H](Oc2ccc(OC)cc2)C[C@H]1C(=O)O)n1cnc(NC(=O)c2cccc(O)c2C(=O)O)c1 [Example 82], CCCCCC[C@H](C(=O)N1C[C@@H](Oc2ccc(OCCCC)cc2)C[C@H]1C(=O)O)n1cnc(NC(=O)c2cccc(O)c2C(=O)O)c1 [Example 84] is 32-fold higher in Kb: 0.316 nM for the first, 10 nM for the second.

CCCCCC[C@H](C(=O)N1C[C@@H](Oc2ccc(OC(C)C)cc2)C[C@H]1C(=O)O)n1cnc(NC(=O)c2ccccc2S(=O)(=O)O)c1 [Example 49] and CCCCCC[C@H](C(=O)N1C[C@@H](Oc2ccc(OCCCC)cc2)C[C@H]1C(=O)O)n1cnc(NC(=O)c2ccccc2S(=O)(=O)O)c1 [Example 50] are within 1.5-fold of each other in Kb: 2.51 nM for the first, 2 nM for the second.

Going from CCCCCC[C@H](C(=O)N1C[C@@H](Oc2ccc(OCC3CC3)cc2)C[C@H]1C(=O)O)n1cnc(NC(=O)c2ccccc2S(=O)(=O)O)c1 [Example 55] to CCCCCC[C@H](C(=O)N1C[C@@H](Oc2ccc(N(C)S(C)(=O)=O)cc2)C[C@H]1C(=O)O)n1cnc(NC(=O)c2ccccc2S(=O)(=O)O)c1 [Example 94, (R)-1-[1-oxo-2-[4-(2-sulfobenzoyl)amino-1H-imidazol-1-yl]octyl]-4-(cis)-[(4-N,N-methyl-methanesulfonamido)-phenoxy]-L-proline], the Kb falls from 0.398 nM to 0.251 nM (1.6-fold).

First: CCCCCC[C@H](C(=O)N1C[C@@H](Oc2ccc(S(=O)(=O)N3CCCC3)cc2)C[C@H]1C(=O)O)n1cnc(NC(=O)c2ccccc2S(=O)(=O)O)c1 [Example 39]
Second: CCCCCCC(C(=O)N1C[C@@H](Oc2cccnc2)C[C@H]1C(=O)O)n1cnc(NC(=O)c2ccccc2S(=O)(=O)O)c1 (stereo partly drawn) [Example 17, 1-[1-Oxo-2-[4-(2-sulfobenzoyl)amino-1H-imidazol-1-yl]octyl]4-cis-(3-pyridyloxy)-L-proline]
The Kb of the first is 16-fold lower: 1 nM for the first, 15.8 nM for the second.

Compound CCCCCCC(C(=O)N1C[C@@H](Oc2ccccc2)C[C@H]1C(=O)O)n1cnc(NC(=O)c2cccc(O)c2C(=O)O)c1 (single isomer, unassigned) [Example 20, 1-[1-oxo-2-[4-(2-carboxy-3-hydroxybenzoyl)amino-1H-imidazol-1-yl]octyl]-4-cis-phenoxy-L-Proline] has a Kb of 3.16 nM.

First: CCCCCC[C@H](C(=O)N1C[C@@H](Oc2ccc(F)cc2)C[C@H]1C(=O)O)n1cnc(NC(=O)c2ccccc2S(=O)(=O)O)c1 [Example 28]
Second: CCCCCCC(C(=O)N1C[C@@H](Oc2ccc(CP(=O)(O)O)cc2)C[C@H]1C(=O)O)n1cnc(NC(=O)c2ccccc2S(=O)(=O)O)c1 (stereo partly drawn) [Example 91]
The “Rabbit Aorta (pA2)” value of the first is lower: 8.7 for the first, 10.1 for the second.

For CCCCCC(C(=O)N1C[C@@H](Oc2ccccc2)C[C@H]1C(=O)O)n1cnc(NC(=O)c2ccccc2S(=O)(=O)O)c1 (stereo partly drawn) [Example 13, 1-[1-oxo-2-[4-(2-sulfobenzoyl)amino-1H-imidazol-1-yl]heptyl]-4-cis-phenoxy-L-proline], the Kb was 63.1 nM and 126 nM.
CCCCCCC(C(=O)N1CCC[C@H]1C(=O)O)n1cnc(NC(=O)c2ccccc2S(=O)(=O)O)c1 (single isomer, unassigned) [Example 21, 1-[1-Oxo-2-[4-(2-sulfobenzoyl)amino-1H-imidazol-1-yl]octyl]-L-proline] was tested, and the Kb was 63.1 nM and 501 nM.
